What was measured:
Cytotoxicity, alamarBlue = format: cell-based; conditions: mouse, RAW 264.7 macrophage cells, read-out: CC50^72 h cytotoxicity (macrophage / mammalian cells)
Method: Leishmania amazonensis axenic amastigotes (100 μL, 2×10^6 cells/mL) were added to 96-multiwell plates containing 100 μL of amastigote culture medium with an appropriate compound dilution series. 0.1% DMSO (no drug) served as a positive control (100%), and 5 μM amphotericin B served as a negative growth control (0%). Only internal wells were used to minimize edge effects from evaporation. Axenic amastigotes were incubated at 32° C. with a compound/drug for 72 h prior to measurement. Similarly, the cytotoxicity of each compound was determined against RAW 264.7 cells and HepG2 cell lines, following 72 h incubation at 37° C. (promastigotes at 26° C.).
10% alamarBlue® (Thermo Fisher Scientific) was used to measure the growth of both parasite and mammalian cells. Conversion from a blue oxidized state to a pink reduced state was assessed visually at 6 hr. The fluorescence signal was measured with a BioTek Synergy H1 plate reader (530 nm excitation, 570 nm emission). For bioluminescence assays using L. amazonensisluc, relative luminescence units (RLU) were measured using Britelite Plus (PerkinElmer, USA). Luminescence produced by this luciferase reaction is proportional to the amount of luciferase-expressing, viable L. amazonensisluc. Following five-minute incubation at room temperature, the luminescence was measured with a BioTek Synergy H1 plate reader. […]

[1] = molecular target: T1, purified L. tarentolae tubulin (Leishmania tarentolae, UniProt A0A640KCM0+A0A640KQN0); assay: Tubulin polymerization turbidity assay, Leishmania tubulin; format: biochemical
Method: L. tarentolae (Parrot strain from ATCC) tubulin was purified. Briefly, promastigotes of L. tarentolae were grown to a high density (˜1×10^8 cells/mL), harvested, and resuspended in PME+P buffer containing 100 mM piperazine N, N′-bis (2-ethanesulfonic acid) (PIPES) buffer (pH 6.9), 1 mM glycol ether diamine tetraacetic acid (EGTA), 1 mM MgCl2, 1 mM benzamidine, 0.5 mM phenylmethylsulfonyl fluoride, 25 μg/ml leupeptin. The resulting suspension was extensively sonicated on ice with a probe sonicator (Misonix), cooled on ice for 30 minutes and centrifuged at 40,000×g for 1 hour at 4° C. using an ultracentrifuge (Beckman, Fullerton, CA). The resulting supernatant was filtered through a glass wool or 0.45-micron filter before loading into an equilibrated DEAE-Sepharose Fast Flow matrix (Amersham Biosciences). The column was washed with two column volumes of PME+P and subsequently four column volumes PME+P containing 0.1 M KCl and 0.25 M glutamate (pH 6.9). Tubulin was eluted with two column volumes PME+P containing 0.3 M KCl and 0.75 M glutamate (pH 6.9), and tubulin-rich fractions were confirmed by tubulin polymerization assays. The assembly-competent tubulin was pooled together and diluted into 1×PME buffer, 2 mM GTP, 10 mM MgCl2 and 8% DMSO (v/v). Tubulin was incubated in this buffer for 45 minutes at 30° C. to promote assembly, centrifuged at 50,000×g at 30° C. for 30 min, and re-suspended in 1 mL of ice-cold PME. […] Purity was assessed by SDS-PAGE and Coomassie Blue.
Tubulin polymerization assays were performed in 96-well half-area microplates (Costar) in a final volume of 100 μL. […] The absorbance at 340 nm was recorded in a Synergy H1 microplate reader (BioTek) for up to 45 min at 37° C. […]
To determine whether MMV676477 directly regulates microtubule assembly, assembly-competent tubulin from Leishmania tarentolae was purified and analyzed (FIG. 5A). […] 3 mg/mL purified L. tarentolae tubulin (3 mg/mL) was treated with serial dilutions of MMV676477 while the absorbance was measured at 340 nm over time.

purified porcine tubulin [2] = molecular target: T2, purified porcine tubulin (Sus scrofa, UniProt P02550+P02554); assay: Tubulin polymerization turbidity assay, mammalian tubulin; format: biochemical
T2 construct: purchased Cytoskeleton, Inc. T240
Method: Tubulin polymerization assays were performed in 96-well half-area microplates (Costar) in a final volume of 100 μL. Briefly, Leishmanial or porcine tubulin (>99% pure, Cat. #T240, Cytoskeleton, Inc.) in 50 μL volume was pre-treated with drugs on ice for 5 minutes before adding 50 μL ice cold buffer, to provide a final concentration of 3 mg/ml tubulin in 80 mM PIPES pH 6.9, 2 mM MgCl2, 0.5 mM EGTA, 1 mM GTP, and 1% DMSO unless specified otherwise. The absorbance at 340 nm was recorded in a Synergy H1 microplate reader (BioTek) for up to 45 min at 37° C. (porcine tubulin) or 30° C. (L. tarentolae tubulin).
(§1) To determine the selectivity of MMV676477, purified porcine tubulin was exposed to a serial dilution of the drug (0 to 25 μM) and absorbance was measured at 340 nm over time. […] To ensure that the absorbance seen at 340 nm reflected microtubule formation and not precipitation, a fluorescent microtubule assembly assay was employed.

[3] = test system: cellular tubulin of L. amazonensis; assay: Polymerized vs. unpolymerized tubulin in parasites (differential centrifugation, western blot); format: cell-based, Leishmania amazonensis; conditions: 24 h at EC50^72 h, densitometry
Text: One reason why MMV676477 might affect parasite cell division is that, like paclitaxel, it might affect microtubule polymerization, either directly or indirectly. The degree to which MMV676477 affected microtubules polymerization in cells was examined. […] Centrifugation of these extracts allowed separation of insoluble polymeric (pellet) and soluble dimeric (supernatant) tubulin. […] The intensity of α-tubulin staining was examined by normalizing it to the intensity of a membrane protein (gp46 for promastigotes in FIG. 4D; p8 for amastigotes in FIG. 4E).

[4] = molecular target: T1, purified L. tarentolae tubulin; assay: Chemical cross-linking competition with SW223022 probe; format: binding; conditions: 100-fold excess of competitor
purified porcine tubulin [5] = molecular target: T2, purified porcine tubulin; assay: Fluorescent microtubule assembly assay; format: biochemical; conditions: mammalian tubulin, fluorescence micrographs
Method: as §1

SMILES: CCc1c(C)nc(-n2nc(C)cc2NC(=O)c2ccccc2SC)[nH]c1=O [MMV676477, N-(1-(5-Ethyl-4-methyl-6-oxo-1,6-dihydropyrimidin-2-yl)-3-methyl-1H-pyrazol-5-yl)-2-(methylthio)benzamide]
- CC50 at 72 h (Cytotoxicity, alamarBlue): 2200 nM
- EC50 [1]: 500 nM
- selectivity for purified Leishmania tubulin over mammalian tubulin ([1]; 0.5 vs 11 μM EC50): 20 fold
- EC50 (purified porcine tubulin [2]; 3 mg/ml tubulin, 1% DMSO, A340): 11000 nM
- tubulin polymerization activity with detergent (purified porcine tubulin [2]; 0.01% Triton-X treatment): not affected
- Maximum absorbance (A340, 10% DMSO) (purified porcine tubulin [2]; mammalian tubulin): 0.4
- proportion of cellular polymeric tubulin [3]: significantly increased the proportion of cellular polymeric tubulin
- competition with SW223022 probe (fluorescent tubulin band) [4]: almost completely absent
- microtubules formed vs control (purified porcine tubulin [5]): many more microtubules were formed

Reference: patent US20240139190A1, “NOVEL ANTIPARASITIC COMPOUNDS AND METHODS” (The Board of Regents of The University of Texas System, priority 2019, published 2024)
